Assay results from publication PMC7144182, “Synthesis, biological evaluation and molecular modelling of 2,4-disubstituted-5-(6-alkylpyridin-2-yl)-1H-imidazoles as ALK5 inhibitors” (Journal of Enzyme Inhibition and Medicinal Chemistry, 2020).
Where “and” joins values, the source holds several entries; their conditions need not be identical. Equal entries are not always repeated.

Tests used:
ALK5 [1] = details: cited from earlier work
[2] = rats; cited from earlier work
ALK5 [3] = details: cited from earlier work; remark: listed apart in the source
p38α = p38α (Homo sapiens, UniProt Q16539); assay: p38α kinase assay (33PanQinase, ATF2 as substrate); assay type: biochemical; details: for IC50: ATF2 substrate, mean of duplicates
Sequence of p38α (Q16539 whole entry): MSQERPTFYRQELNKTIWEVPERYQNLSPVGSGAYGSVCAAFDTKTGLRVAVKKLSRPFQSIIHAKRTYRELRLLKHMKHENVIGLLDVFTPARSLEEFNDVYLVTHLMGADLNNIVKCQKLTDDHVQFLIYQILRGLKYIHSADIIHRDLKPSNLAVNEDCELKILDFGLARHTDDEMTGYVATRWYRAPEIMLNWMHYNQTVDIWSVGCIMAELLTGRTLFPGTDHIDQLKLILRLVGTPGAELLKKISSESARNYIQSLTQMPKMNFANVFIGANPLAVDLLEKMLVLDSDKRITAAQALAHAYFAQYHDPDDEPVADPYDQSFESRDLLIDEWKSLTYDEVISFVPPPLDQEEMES

ALK5 [4] = target: T1, ALK5 (Homo sapiens, UniProt P36897)
T1 sequence (P36897 34-503): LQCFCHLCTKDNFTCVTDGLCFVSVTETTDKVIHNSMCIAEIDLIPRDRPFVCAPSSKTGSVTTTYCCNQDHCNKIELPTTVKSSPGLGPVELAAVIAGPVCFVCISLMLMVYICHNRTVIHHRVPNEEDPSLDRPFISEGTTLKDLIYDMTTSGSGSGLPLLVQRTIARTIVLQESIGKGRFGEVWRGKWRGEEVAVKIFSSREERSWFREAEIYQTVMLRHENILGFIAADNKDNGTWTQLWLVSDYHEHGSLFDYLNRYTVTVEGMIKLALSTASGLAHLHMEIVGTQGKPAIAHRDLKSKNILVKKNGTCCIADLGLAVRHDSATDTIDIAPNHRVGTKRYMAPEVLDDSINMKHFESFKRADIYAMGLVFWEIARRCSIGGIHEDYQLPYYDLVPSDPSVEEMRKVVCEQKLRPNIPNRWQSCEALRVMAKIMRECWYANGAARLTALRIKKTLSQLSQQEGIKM

[5] = target: T2, purified human ALK5 kinase domain (Homo sapiens, UniProt P36897); assay: ALK5 kinase assay (33PanQinase, casein as substrate); assay type: biochemical; details: for IC50: casein substrate, 1 μM ATP, singlicate (11e: mean of triplicates)
T2 construct: using the purified human ALK5 kinase domain produced in Sf9 insect cells; host or cells: Sf9 insect cells
T2 sequence (P36897 205-495 limits assumed): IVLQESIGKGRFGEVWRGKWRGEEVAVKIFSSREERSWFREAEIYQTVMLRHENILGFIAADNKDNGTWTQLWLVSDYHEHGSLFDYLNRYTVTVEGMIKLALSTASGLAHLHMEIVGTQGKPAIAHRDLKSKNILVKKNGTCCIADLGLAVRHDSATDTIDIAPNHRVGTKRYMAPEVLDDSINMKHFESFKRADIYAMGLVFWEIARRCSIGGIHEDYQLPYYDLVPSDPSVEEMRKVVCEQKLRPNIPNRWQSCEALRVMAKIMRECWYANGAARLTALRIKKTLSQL
Protocol: To evaluate whether these potential inhibitors 7a–c, 11a–h, and 16a–h could inhibit ALK5, a kinase assay was performed using the purified human ALK5 kinase domain produced in Sf9 insect cells and casein as a substrate (Table 1).

[6] = tested on: panel of 28 protein kinases; details: panel of 28 protein kinases (19 serine/threonine, 9 tyrosine kinases)
Source text: Because ALK5 is a serine/threonine kinase, we chose 19 serine/threonine kinases including ALK5 and an ALK family kinase, ACV-R1 (ALK5, ACV-R1, Aurora-A, ARK5, B-Raf, CK2α1, COT, DAPK1, IRAK4, JNK3, MAPKAPK5, MST4, NEK2, NLK, PAK1, PIM1, PRK1, S6K, SGK1) and 9 tyrosine kinases (ABL1, CSK, FGF-R1, FLT3, IGF1-R, PDGFR-α, SRC, VEGF-R1, ZAP70).

Caco-2 cells = assay: Caco-2 cell permeability assay; assay type: in vitro ADME; details: 100 µM, AP to BL, 2 h; mean ± SD of quadruplicates
Protocol: Caco-2 cells were seeded in Transwell® polycarbonate filter at a density of 8 × 10^4 cells/filter and cultured for 21 days. Culture medium was removed from both apical (AP) and basolateral (BL) chambers of transwell, and the wells were rinsed three times with PBS. AP buffer (HBSS, pH 6.5) containing 10 mM MES and BL buffer (HBSS, pH 7.4) containing 10 mM HEPES were loaded in AP (500 µL) and BL (1500 µL) chambers, respectively, followed by incubation for 30 min at 37 °C. Then, test compound (100 µM) was added to the AP side and incubated for 2 h at 37 °C. After the incubation, BL buffer was collected and analysed using an UV spectrophotometer at a maximum wavelength (wavelength 225–357 nm).
To estimate oral absorption of target compounds, their permeability in a Caco-2 monolayer was evaluated at a concentration of 100 µM (Table 1).

[7] = tested on: TGF-β1-induced luciferase reporter activity, HaCaT (3TP-luc) stable cells; assay: Cell-based p3TP-luciferase reporter assay; details: for % inhibition in luciferase reporter assay: 0.1 µM inhibitor; for p3TP-luciferase activity (% control): 0.1 μM inhibitor, TGF-β1 2 ng/mL, 24 h, mean ± SD of three independent experiments; for IC50: Homo sapiens, HaCaT, read-out: IC50 for p3TP-luciferase
Protocol: To establish HaCaT (3TP-luc) stable cells, cells were seeded on six-well plates. Cells were allowed to adhere overnight and then transfected with the p3TP-luc (neo) expression plasmid using PEI reagent (Sigma Aldrich). Transfected cells were cultured for four weeks in the presence of G418 (500 µg/mL). Several single clones were isolated and measured luciferase activity. The clone showing response to TGF-β1 treatment was used for reporter assay. HaCaT (3TP-luc) stable cells were seeded at 2.5 × 10^4 cells/well in 96-well plate and were allowed to adhere overnight. Cells were concomitantly treated with TGF-β1 (2 ng/mL) and indicated concentrations of ALK5 inhibitors in 0.2% FBS medium and incubated for 24 h at 37 °C in 5% CO2. Cell lysates were prepared using Luciferase Assay System (Promega) according to the manufacturer’s instruction, and luminescence was measured by a luminometer, Micro Lumat Plus (Berthold, Germany).

Compound	IC50 (p38α) [nM]	IC50 [5] [nM]	Caco-2 permeability (%) (Caco-2 cells)	% inhibition in luciferase reporter assay [7] [% inhibition]	p3TP-luciferase activity (% control) [7] [% control]	IC50 [7] [nM]	other results
Cc1cccc(-c2[nH]c(CNc3ccccc3F)nc2-c2ccc3ncnn3c2)n1 [Vactosertib (2), N-((4-([1,2,4]triazolo[1,5-a]pyridin-6-yl)-5-(6-methylpyridin-2-yl)-1H-imidazol-2-yl)methyl)-2-fluoroaniline]	–	–	–	–	–	–	ALK5 inhibitory activity in a cell-based luciferase reporter assay (ALK5 [1]): subnanomolar; oral bioavailability [2]: moderate; ALK5 inhibitory activity in a kinase assay (ALK5 [3]): subnanomolar
Cc1cccc(-c2[nH]c(Cc3cccc(C(N)=O)c3)nc2-c2ccc3nccnc3c2)n1 [Compound 11e, 3-((5-(6-Methylpyridin-2-yl)-4-(quinoxalin-6-yl)-1H-imidazol-2-yl)methyl)benzamide]	288	36	56% and 56 ± 26.8%	92	8 ± 5.8	19.6	Selectivity index (IC50 for p38α/IC50 for ALK5) (p38α): 22; fold less selective against p38α than vactosertib (p38α): 6.2 fold; fold more selective against p38α than galunisertib (p38α): 5.5 fold; fold higher potency compared to galunisertib (ALK5 [4]; ALK5 kinase assay): 6.6 fold; IC50 (ALK5 [4]; read-out: IC50 for ALK5, GSK3 (14–27) substrate, 1 μM ATP, mean of duplicates): 13 nM; Selectivity indices against all the kinases tested [6]: > 100
Cc1cccc(-c2nn3c(c2-c2ccnc4ccc(C(N)=O)cc24)CCC3)n1 [Galunisertib (1), reference compound]	320	–	–	–	–	> 100	–
Cc1cccc(-c2[nH]c(CCc3ccc(C(N)=O)cc3)nc2-c2ccc3nccnc3c2)n1 [Compound 16a, 4-(2-(5-(6-Methylpyridin-2-yl)-4-(quinoxalin-6-yl)-1H-imidazol-2-yl)ethyl)benzamide]	–	30	45 ± 5.3%	85	15 ± 8.2	–	fold more potent than the benzo[1,3]dioxol-5-yl analogue ([5]; 11a vs 7a, 16a vs 7b, kinase assay): 3.1 fold; fold more inhibiting than the corresponding m-CONH2 analogues 16e and 16f ([5]; ethylene linker series): 1.6 fold; fold more inhibiting than the respective methylene linker analogue ([5]; vs 11a, 11b, 11c, 11g respectively): 2.9 fold
